Assay results reported in PubChem BioAssay (NCI).
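Results reflect a 48-hour exposure of cells in 96-well plates to compound at five concentrations. TGI marks complete inhibition of growth.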

Assays:
Assay in all cases: inhibition of tumour cell growth, NCI panel, 48 h
SF-295 CNS = system: SF-295 CNS
SF-268 CNS = system: SF-268 CNS
MDA-MB-435 = system: MDA-MB-435
NCI-H522 lung = system: NCI-H522 lung
DU-145 prostate = system: DU-145 prostate
A549 NSCLC = system: A549 NSCLC
OVCAR-8 ovarian = system: OVCAR-8 ovarian
HL-60(TB) leukemia = system: HL-60(TB) leukemia
HCC-2998 colon = system: HCC-2998 colon
EKVX NSCLC = system: EKVX NSCLC
BT-549 breast = system: BT-549 breast

Structure (SMILES)	TGI (SF-295 CNS)	TGI (SF-268 CNS)	TGI (MDA-MB-435)	TGI (NCI-H522 lung)	TGI (DU-145 prostate)	TGI (A549 NSCLC)	TGI (OVCAR-8 ovarian)	TGI (HL-60(TB) leukemia)	TGI (HCC-2998 colon)	TGI (EKVX NSCLC)	TGI (BT-549 breast)
COC1(CC[C@@H](C)COC2OC(CO)C(O)C(O)C2O)O[C@H]2C[C@H]3[C@@H]4CC=C5C[C@@H](OC6OC(CO)C(O)C(OC7OC(CO)C(O)C(O)C7O)C6OC6OC(C)C(O)C(O)C6O)CC[C@]5(C)[C@H]4CC[C@]3(C)[C@H]2[C@@H]1C (some centres not stated)	11.3 µM	26.4 µM	8.52 µM	15.3 µM	14.7 µM	9.36 µM	59.7 µM	26.8 µM	10.6 µM	35.3 µM	31.8 µM
Cc1ccc2nc(-c3ccc(C(C)(C)C)cc3)oc(=O)c2c1	49 µM	70.7 µM	43 µM	35 µM	68.4 µM	> 100 µM	43.9 µM	40 µM	27.8 µM	69.8 µM	57.3 µM
